Source: US5622839A (ZymoGenetics, Inc., priority 1995, dated 1997)

Legend:
[1] = target: T1, human calcitonin receptor (Homo sapiens, UniProt P30988); assay: CRE-luciferase induction in BHK/KZ10-20-48 cells transfected with pHollex (Hollex1, Hollex2); assay type: cell-based; details: Hollex1 and Hollex2 clones; 4 h at 37° C.; FIG. 3 and FIG. 4
T1 construct: Hollex encoded a protein of 474 amino acids; expressed in transfected cells; host or cells: BHK 570 / BHK/KZ10-20-48 (baby hamster kidney) stably transfected with pHollex
T1 sequence (P30988 25-474): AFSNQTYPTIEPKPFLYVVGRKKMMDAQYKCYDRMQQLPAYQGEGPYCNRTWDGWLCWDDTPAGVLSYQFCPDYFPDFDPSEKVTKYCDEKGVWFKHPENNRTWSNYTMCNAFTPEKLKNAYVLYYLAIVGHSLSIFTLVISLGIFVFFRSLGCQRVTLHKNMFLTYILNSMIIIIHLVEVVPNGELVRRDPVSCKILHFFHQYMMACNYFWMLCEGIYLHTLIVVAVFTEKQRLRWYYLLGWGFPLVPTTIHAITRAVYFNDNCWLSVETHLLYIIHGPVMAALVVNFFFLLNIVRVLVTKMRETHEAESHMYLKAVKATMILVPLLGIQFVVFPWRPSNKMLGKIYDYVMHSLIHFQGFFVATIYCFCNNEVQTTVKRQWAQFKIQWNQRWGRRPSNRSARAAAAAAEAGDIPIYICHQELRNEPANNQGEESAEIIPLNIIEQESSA
Protocol: This cell line permits the measurement of luciferase activity, adenylate cyclase activity and intracellular calcium concentrations in response to calcitonin binding to its receptor.
Plasmid KZ10 was transfected into BHK570 cells (available from ATCC as Accession no. CRL 10314) using the calcium phosphate precipitation method essentially as described by Graham and Van de Eb (Virol. 52: 456, 1973, which is incorporated by reference herein). The transfected cells were grown in growth medium (Dulbecco's modified Eagle's medium (DMEM) containing 10% fetal calf serum and 2.0 mm L-glutamine). After a few days in nonselective growth medium, the growth medium was replaced with methotrexate (MTX) selection medium (growth medium containing 250 nM MTX). The cells were then allowed to grow to confluency after which they were trypsinized and plated at limiting dilution into the wells of 96-well plates. […]
Induction was initiated by removing old medium from the wells and adding 100 μl of fresh growth medium and 100 μl of each 2× solution in triplicate sample wells. Uninduced levels were determined in triplicate wells to which 100 μl of DMEM containing 10% fetal calf serum was added. […]
Following induction, the medium was removed, and the wells were washed once with 200 μl/well PBS. […] The fold induction of luciferase for each agonist was calculated as follows: […]

bone resorption = details: compared with human forms of calcitonin; background; cited from earlier work
[2] = target: T1, human calcitonin receptor; assay: Calcitonin competition binding assay with cloned human calcitonin receptor (Hollex1, Hollex2); details: for Results (bound 125I calcitonin): 125I calcitonin […] 10^-2 nM
Protocol: Clones Hollex1 and Hollex2 were tested for receptor-mediated ability to bind calcitonin using a competition assay. T47D cells were used as a positive control and BHK cells transfected with Zem1698 were used as a negative control.
The cells were rinsed in binding medium (500 ml RPMI 1640 (Sigma, St. Louis, Mo.), 1 mg/ml bacitracin (Sigma), and 1 mg/ml BSA (Boehringer Mannheim)) to remove the serum. […] The cells were incubated for 1.5 hours at room temperature, and then rinsed 3 times with PBS to remove unincorporated radioactivity. Five hundred microliters of 0.25N NaOH was added to each well to solubilize the cells. The samples were collected from each well and CPMs were counted on a gamma counter.

**Q.** Which “fold induction of luciferase” value [1] does the source give for salmon calcitonin here?
**A.** 5-10 fold

**Q.** What about the “effectiveness in arresting bone resorption” value (bone resorption) of the same substance?
**A.** considerably more effective

**Q.** What about the baseline control ([2]; 200 nM unlabeled salmon calcitonin) of the same substance?
**A.** 27 cpm

**Q.** What about the Kd ([2]; Hollex1) of the same substance?
**A.** 0.5 ± 0.2 nM

**Q.** What about the Kd ([2]; Hollex2) of the same substance?
**A.** 0.3 ± 0.01 nM

**Q.** And the “Results (bound 125I calcitonin)” value ([2]; unlabeled salmon calcitonin 0.003 nM)?
**A.** 10430 cpm

**Q.** And the “Results (bound 125I calcitonin)” value ([2]; unlabeled salmon calcitonin 0.01 nM)?
**A.** 10278 cpm

**Q.** And the “Results (bound 125I calcitonin)” value ([2]; unlabeled salmon calcitonin 0.03 nM)?
**A.** 10262 cpm

**Q.** And the “Results (bound 125I calcitonin)” value ([2]; unlabeled salmon calcitonin 0.1 nM)?
**A.** 9711 cpm

**Q.** And the “Results (bound 125I calcitonin)” value ([2]; unlabeled salmon calcitonin 0.3 nM)?
**A.** 8421 cpm

**Q.** And the “Results (bound 125I calcitonin)” value ([2]; unlabeled salmon calcitonin 1 nM)?
**A.** 4132 cpm

**Q.** And the “Results (bound 125I calcitonin)” value ([2]; unlabeled salmon calcitonin 3 nM)?
**A.** 1639 cpm

**Q.** And the “Results (bound 125I calcitonin)” value ([2]; unlabeled salmon calcitonin 10 nM)?
**A.** 558 cpm

**Q.** And the “Results (bound 125I calcitonin)” value ([2]; unlabeled salmon calcitonin 30 nM)?
**A.** 458 cpm

**Q.** What about the “Results (bound 125I calcitonin)” value ([2]; unlabeled salmon calcitonin 50 nM) of the same substance?
**A.** 147 cpm
